In patent US20110105565A1, “WATER SOLUBLE SMALL MOLECULE INHIBITORS OF THE CYSTIC FIBROSIS TRANSMEMBRANE CONDUCTANCE REGULATOR” (THE REGENTS OF THE UNIVERSITY OF CALIFORNIA, priority 2008, published 2011):
“Also recorded” adds a separate entry of the source.

Key:
CFTR = molecular target: T1, CFTR (Canis lupus familiaris, UniProt Q5U820); experiment: Short-circuit current measurements in MDCK cells; format: cell-based, Canine; conditions: for IC50: after CFTR stimulation by forskolin, read-out: IC50, inhibition of short-circuit current in MDCK cells; for CFTR expression, short-circuit current after incubation (in words): 10 μM, 1 or 48 hour incubation, washout 1 hour
T1 construct: MDCK cells, which endogenously express CFTR; endogenous in cells; host or cells: MDCK cells
T1 sequence (Q5U820 whole entry): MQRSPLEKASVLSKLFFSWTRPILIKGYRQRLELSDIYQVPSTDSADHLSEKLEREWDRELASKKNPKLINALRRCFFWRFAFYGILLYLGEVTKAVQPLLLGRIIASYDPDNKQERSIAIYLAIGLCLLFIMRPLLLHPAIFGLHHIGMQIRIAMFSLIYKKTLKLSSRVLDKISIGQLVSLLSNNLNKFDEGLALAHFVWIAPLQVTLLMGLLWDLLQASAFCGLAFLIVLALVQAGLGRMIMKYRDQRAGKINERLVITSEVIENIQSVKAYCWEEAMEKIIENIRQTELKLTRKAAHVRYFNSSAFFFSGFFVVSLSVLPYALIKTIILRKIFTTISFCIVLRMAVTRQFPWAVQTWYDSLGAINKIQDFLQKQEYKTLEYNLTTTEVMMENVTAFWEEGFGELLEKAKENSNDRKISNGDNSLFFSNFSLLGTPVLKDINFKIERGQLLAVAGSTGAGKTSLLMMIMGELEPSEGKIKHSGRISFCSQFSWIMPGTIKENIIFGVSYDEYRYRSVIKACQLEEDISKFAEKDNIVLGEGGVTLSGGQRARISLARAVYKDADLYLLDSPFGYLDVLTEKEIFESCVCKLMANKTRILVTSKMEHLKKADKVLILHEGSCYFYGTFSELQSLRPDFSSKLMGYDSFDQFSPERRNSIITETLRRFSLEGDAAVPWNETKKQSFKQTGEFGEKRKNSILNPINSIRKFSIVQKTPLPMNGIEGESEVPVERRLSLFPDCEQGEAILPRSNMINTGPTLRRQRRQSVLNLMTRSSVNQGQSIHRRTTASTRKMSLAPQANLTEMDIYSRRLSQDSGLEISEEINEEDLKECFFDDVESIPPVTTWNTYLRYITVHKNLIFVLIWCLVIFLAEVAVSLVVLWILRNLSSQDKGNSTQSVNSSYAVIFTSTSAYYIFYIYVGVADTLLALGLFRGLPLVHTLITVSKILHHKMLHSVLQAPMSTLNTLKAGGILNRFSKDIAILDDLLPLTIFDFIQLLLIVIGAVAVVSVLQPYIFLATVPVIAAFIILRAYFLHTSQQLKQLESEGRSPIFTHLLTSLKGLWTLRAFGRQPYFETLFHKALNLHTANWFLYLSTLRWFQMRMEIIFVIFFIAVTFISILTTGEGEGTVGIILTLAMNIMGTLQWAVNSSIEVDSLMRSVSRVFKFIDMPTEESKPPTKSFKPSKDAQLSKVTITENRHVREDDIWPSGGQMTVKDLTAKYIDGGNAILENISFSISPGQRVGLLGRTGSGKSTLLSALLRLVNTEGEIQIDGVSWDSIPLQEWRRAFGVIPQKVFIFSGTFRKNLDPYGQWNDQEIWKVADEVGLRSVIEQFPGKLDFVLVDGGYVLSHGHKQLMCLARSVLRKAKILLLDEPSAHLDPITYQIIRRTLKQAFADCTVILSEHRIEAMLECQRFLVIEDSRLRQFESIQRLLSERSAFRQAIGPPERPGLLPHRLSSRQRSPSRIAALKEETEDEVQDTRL
Protocol: CFTR inhibition potency was confirmed in MDCK cells by short-circuit current analysis. Snapwell inserts containing MDCK cells (transepithelial resistance 1000-2000 Ohms) were mounted in a standard Using chamber system. The basolateral membrane was permeabilized with 250 μg/ml amphotericin B. The hemichambers were filled with 5 mL of 65 mM NaCl, 65 mM Na-gluconate, 2.7 mM KCl, 1.5 mM KH2PO4, 1 mM CaCl2, 0.5 mM MgCl2, Na-Hepes and 10 mM glucose (apical), and 130 mM NaCl, 2.7 mM KCl, 1.5 mM KH2PO4, 1 mM CaCl2, 0.5 mM MgCl2, Na-Hepes and 10 mM glucose (basolateral) (pH 7.3). Short-circuit current was recorded continuously using a DVC-1000 voltage clamp (World Precision Instruments, Sarasota Fla.) with Ag/AgCl electrodes and 1 M KCl agar bridges.
In some experiments, MDCK cells in Snapwell inserts were cultured in medium containing 10 μM T08 or G07 for 1 or 48 hours. Compounds were washed out with medium for 1 hour before short-circuit current measurements.

embryonic kidneys = experiment: Embryonic kidney organ culture model (8-Br-cAMP-induced cysts); format: cell-based, mouse; conditions: for kidney length after 4 days in culture: absence of 8-Br-cAMP; for cyst formation in embryonic kidneys (in words): 100 μM 8-Br-cAMP, 4 days
Excerpt: An embryonic kidney organ culture model was used to further evaluate compounds T08 and G07. Embryonic kidney culture models permit organotypic growth and differentiation of renal tissue in defined media without the confounding effects of circulating hormones and glomerular filtration (see, e.g., Magenheimer et al., J Am Soc Nephrol 17: 3424-37, 2006; and Gupta et al., Kidney Int 63: 365-376, 2003). In addition, the early mouse kidney tubule in this model has an intrinsic capacity to secrete fluid in response to cAMP by a CFTR-dependent mechanism (Magenheimer et al.), allowing the evaluation of CFTR inhibitors in particular.
Mouse embryos were obtained at embryonic day 13.5 (E13.5). Metanephroi were dissected and placed on transparent Falcon […] porous cell culture inserts. To the culture inserts was added DMEM/Ham's F-12 nutrient medium supplemented with 2 mM L-glutamine, 10 mM HEPES, 5 μg/ml insulin, 5 μg/ml transferrin, 2.8 nM selenium, 25 ng/ml prostaglandin E, 32 pg/ml T3, 250 U/ml penicillin and 250 μg/ml streptomycin. Kidneys were maintained in a 37° C. humidified CO2 incubator, and were cultured for 4 days in the absence or presence of 100 μM 8-Br-cAMP. Culture medium containing 100 μM 8-Br-cAMP, with or without CFTR inhibitors, was replaced (in the lower chamber) every 12 hours.
Kidneys were photographed using a Nikon inverted microscope (Nikon TE 2000-S) equipped with 2× objective lens, 520 nm bandpass filter, and high-resolution PixeLINK color CCD camera. […] Cyst sizes in micrographs of metanephroi were determined using MATLAB 7.0 software. A masking procedure was used to highlight all pixels of similar intensity within each cyst. Fractional cyst area was calculated as total cyst area divided by total kidney area. Cysts with diameters >50 μm were included in the analysis. Image acquisition and analysis was done without knowledge of treatment condition.

[1] = HPLC/MS measurement of inhibitor concentration in urine after subcutaneous administration; format: in vivo, mouse; conditions: 4 times daily for 3 days, 5 mg/kg/day; for concentration at 1 h: 1 hour after final dosing; for concentration at 5 h: 5 hour after final dosing
Protocol: CFTR inhibitors (5-10 mg/kg/day) or saline DMSO vehicle control (0.05 mL/injection) were administrated by subcutaneous injection on the backs of neonatal mice four times a day for 3 or 7 days using a 1 cc insulin syringe, beginning at age 2 days (11 mice per group). Pkd1^flox/+; Ksp-Cre or Pkd1^flox/+ mice from the same litter were used as controls. During the treatment period, control and Pkd1^flox/−; Ksp-Cre mice, with or without CFTR inhibitor treatment, were indistinguishable in their activity and behavior. Body weight was measured at day 5 (3 days after treatment), at which time there was no difference in body weight in any of the mouse groups. Blood and urine samples were collected for measurements of CFTR inhibitor concentration and renal function. Kidneys were removed and weighed, and fixed for histological examination or homogenized for determination of CFTR inhibitor content.
For high-performance liquid chromatography/mass spectrometry (HPLC/MS) analysis of CFTR inhibitor concentration, kidneys were homogenized in 50-100 μl of PBS for 5 min using an EPPENDORF pellet pestle homogenizer. The homogenate was mixed with an equal volume of chilled acetonitrile to precipitate proteins. After centrifugation at 5000×g for 10 min the supernatant was evaporated under nitrogen, and the residue was dissolved in eluent (50% CH3CN/20 mM NH4OAc). Urine samples were directly diluted 10-fold with eluent. Reversed-phase HPLC separations were carried out using a WATERS C18 column (2.1×100 mm, 2.5 μm particle size) equipped with a solvent delivery system (WATERS model 2690, Milford, Mass.). The solvent system consisted of a linear gradient from 20% CH3CN/20 mM NH4OAc to 95% CH3CN/20 mM NH4OAc, run over 20 min, followed by 5 min at 95% CH3CN/20 mM NH4OAc (0.2 mL/min flow rate). Mass spectra were acquired on an Alliance HT 2790+ZQ mass spectrometer using negative ion detection, scanning from 150 to 1500 Da. The electrospray ion source parameters were: capillary voltage 3.2 kV (negative ion mode) or 3.5 kV (positive ion mode), cone voltage 37 V, source temperature 120° C., desolvation temperature 250° C., cone gas flow 25 L/h, and dessolvation gas flow 350 L/h.
Concentrations were measured to establish dosing to give sustained concentrations in kidney/urine of >1 μM, where CFTR is inhibited. Kidney and urine samples were obtained from mice after 4 times daily subcutaneous administration for 3 days at 5 mg/kg/day, a dose regimen determined from preliminary studies. Urinary concentrations were measured at 1 and 5 hour after the final dosing. For tetrazolo-CFTRinh-172, urine concentrations were 3.3 and 3.6 μM at 1 and 5 hour, respectively. The urine concentrations of Ph-GlyH-101 were 4.3 and 5.8 μM. […] These concentrations are several-fold greater than the IC50 for CFTR inhibition.

Row | Compound | IC50 (CFTR) [nM] | kidney length after 4 days in culture (embryonic kidneys) [mm] | concentration at 1 h ([1]; C57BL/6, mouse, urine, sc) [µM] | concentration at 5 h ([1]; C57BL/6, mouse, urine, sc) [µM] | CFTR expression, short-circuit current after incubation (in words) (CFTR) | cyst formation in embryonic kidneys (in words) (embryonic kidneys; listed as T08) | cyst formation in embryonic kidneys (in words) (embryonic kidneys) | concentration at 1 h [1] [µM] | concentration at 5 h [1] [µM]
1 | O=C1/C(=C/c2ccc(-c3nn[nH]n3)cc2)SC(=S)N1c1cccc(C(F)(F)F)c1 [Compound 6, (Z)-5-(4-(1H-tetrazol-5-yl)benzylidene)-2-thioxo-3-(3-(trifluoromethyl)phenyl)thiazolidin-4-one] | ~1000 | 7.4±0.5 | 3.3 | 3.6 |  |  |  |  | 
2 | O=C1/C(=C/c2ccc(-c3nnn[nH]3)cc2)SC(=S)N1c1cccc(C(F)(F)F)c1 [Compound 6, (Z)-5-(4-(1H-tetrazol-5-yl)benzylidene)-2-thioxo-3-(3-(trifluoromethyl)phenyl)thiazolidin-4-one] |  |  |  |  | did not alter CFTR expression | remarkably reduced cyst formation; also recorded: reduced the number and size of cysts |  |  | 
3 | N-2-naphthalenyl-2-hydroxyethyl-[(3,5-dibromo-2,4-dihydroxyphenyl)methylene]phenylglycinehydrazide [Compound G07] | ~1000 | 7.1±0.4 |  |  | did not alter CFTR expression |  | remarkably reduced cyst formation; also recorded: reduced the number and size of cysts | 4.3 | 5.8
